Data: US11299458B2, “Crystalline compounds” (OTSUKA AMERICA PHARMACEUTICAL, INC., priority 2015, dated 2022)

What was measured:
[1] = Dynamic vapor sorption/desorption isotherm (moisture balance); type: physicochemical; conditions: 25° C.
Text: Based on the dynamic vapor sorption/desorption data collected (FIG. 3), Crystalline Form A obtained is a non-hygroscopic material.
Data acquisition parameters for dynamic vapor sorption/desorption isotherm: […]

[2] = Storage stability of solid form, XRPD after storage; type: physicochemical
Procedure: Six scale-up attempts are conducted to prepare Crystalline Form C by cooling in isopropanol on approximately 50-150 mg scale (Table 11) and the solids tested by XRPD. At refrigerator temperature, precipitated solids yield Form B. Seeding with Form C after cooling in the refrigerator (no solids observed) and before placing in the freezer yield XRPD pattern of Form C with B peaks. Precipitation at freezer temperature results in solids with an XRPD pattern of Form C with A peaks. A solution placed in the freezer after cooling to room temperature with a lower concentration (7 mg/mL compared to 10 mg/mL) yields Form B. By crash cooling (ambient solution placed into dry ice/isopropanol), solids generated are a mixture of Forms B and A. The last attempt on an approximate 50-mg scale generates a mixture of Forms A and C.
An elliptically graded multilayer mirror is used to focus Cu Kα X-rays through the specimen and onto the detector. Prior to the analysis, a silicon specimen (NIST SRM 640e) is analyzed to verify the observed position of the Si 111 peak is consistent with the NIST-certified position. A specimen of the sample is sandwiched between 3-μm-thick films and analyzed in transmission geometry. A beam-stop, short antiscatter extension, and antiscatter knife edge are used to minimize the background generated by air. Soller slits for the incident and diffracted beams are used to minimize broadening from axial divergence. The diffraction pattern is collected using a scanning position-sensitive detector (X'Celerator) located 240 mm from the specimen and Data Collector software v. 2.2b. Data acquisition parameters are: Panalytical X-Pert Pro MPD PW3040 Pro, X-ray Tube: Cu (1.54059 Å), Voltage: 45 kV, Amperage: 40 mA, Scan Range: 1.00-39.99° 2θ, Step Size: 0.017° 2θ, Collection Time: 719 s, Scan Speed: 3.3°/min., Slit: DS: ½°, SS: null, Revolution Time: 1.0 s, Mode: Transmission.

Structure (SMILES): Cl.c1ccc2cc([C@]34CNC[C@H]3C4)ccc2c1 [Crystalline Form A, (1R,5S)-1-(naphthalen-2-yl)-3-azabicyclo[3.1.0]hexane hydrochloride]
- weight loss upon initial equilibration at 5% RH [1]: 0.03%
- hygroscopicity based on dynamic vapor sorption/desorption data ([1]; 5% to 95% RH): non-hygroscopic
- weight gain from 5% to 95% RH ([1]; sorption): 0.10%
- Weight % chg ([1]; desorption, Samp RH 4.95%): −0.032 % chg
- Weight % chg ([1]; desorption, Samp RH 15.20%): −0.025 % chg
- Weight % chg ([1]; desorption, Samp RH 25.12%): −0.021 % chg
- Weight % chg ([1]; desorption, Samp RH 35.13%): −0.016 % chg
- Weight % chg ([1]; desorption, Samp RH 45.09%): −0.013 % chg
- Weight % chg ([1]; desorption, Samp RH 55.08%): −0.007 % chg
- Weight % chg ([1]; desorption, Samp RH 64.96%): 0.003 % chg
- Weight % chg ([1]; desorption, Samp RH 75.28%): 0.019 % chg
- Weight % chg ([1]; desorption, Samp RH 85.08%): 0.037 % chg
- Weight % chg ([1]; sorption, Samp RH 5.06%): −0.034 % chg
- Weight % chg ([1]; sorption, Samp RH 15.24%): −0.025 % chg
- Weight % chg ([1]; sorption, Samp RH 24.81%): −0.024 % chg
- Weight % chg ([1]; sorption, Samp RH 34.82%): −0.019 % chg
- Weight % chg ([1]; sorption, Samp RH 44.81%): −0.016 % chg
- Weight % chg ([1]; sorption, Samp RH 54.86%): −0.012 % chg
- Weight % chg ([1]; sorption, Samp RH 64.82%): −0.005 % chg
- Weight % chg ([1]; sorption, Samp RH 74.66%): 0.005 % chg
- Weight % chg ([1]; sorption, Samp RH 84.55%): 0.024 % chg
- Weight % chg ([1]; sorption, Samp RH 94.54%): 0.068 % chg
- Weight % chg ([1]; start, Samp RH 1.70%): 0.000 % chg
- solid form by XRPD after long-term storage ([2]; long-term storage, product of Example 5): consistent with Crystalline Form A
- XRPD Result after 22 days of ambient storage ([2]; solids from IPA CC (70° C. to dry ice/IPA), freezer/2 d, after 22 days of ambient storage): storage: C +
